Assay results published in patent US20220347294A1, “COMPOSITIONS AND METHODS FOR INCREASING THE EFFICACY OF IMMUNOTHERAPIES AND VACCINES” (The Regents of the University of Michigan, priority 2019, published 2022).

Experiments:
[1] = Fiber gel formation: inulin gel with added natural fibers or excipients; assay type: physicochemical; details: heated at 70° C. for 5 minutes, cooled overnight
Excerpt: FIG. 24: Inulin gel was formed after adding various amounts of natural fibers or excipients. The values shown are the maximum amount of each ingredient that could be added to 23% w/w inulin gel without disrupting the gel formation.
Experiments were next conducted involving the formation of new fiber gels by combining inulin with other natural dietary fibers or pharmaceutical excipients. Briefly, inulin gels were manufactured by first mixing 23% w/w inulin together with other excipients, including resistant potato starch, pectin, guar gum, bean gum, gelatin, or glycerol. Other natural fibers would provide additional nutrient source for commensal microbiome, while other excipients served as thickening reagents in these formulations. The mixtures were then heated at 70° C. for 5 minutes, followed by cooling at room temperature overnight. During the manufacturing processes, both pre-dissolving and dry-blending were used in order to add the excipients, based on individual dissolutions in water. […] The ingredients were first mixed in water (top panel), heated at 70° C. for 5 minutes (middle panel), followed by cooling at room temperature overnight, leading to the formation of fiber gels (bottom panel) (FIG. 23).
Experiments were next conducted that varied the amount of natural fibers and excipients added to inulin gel and determined the ideal composition for forming fiber gels. […] The indicated values are the maximum amount of each ingredient that could be added to 23% w/w inulin gel without disrupting gel formation.

CT26 tumor = assay: Tumor microenvironment analysis (tumor-infiltrating cells, flow cytometry); assay type: in vivo, BALB/c mice; details: combined with α-PD-1 IgG, day 24
Protocol: After treatment with various samples, tumor tissues were excised at preset time points for analysis of tumor-infiltrating T cells. Tumor tissues were excised, cut into small pieces, and incubated with collagenase type IV (1 mg/ml) and of DNase I (0.1 mg/ml) with gentle shaking. After 30 min, cell suspension was filtered through a 70-μm strainer. Cells were washed with FACS buffer and blocked with anti-CD16/32 antibody. Cells were then stained with various antibodies (CD4 Monoclonal Antibody (GK1.5)-PE (eBioscience), APC-Anti-CD45 Rat Monoclonal Antibody (clone: 30-F11), FITC-Anti-CD45 Rat Monoclonal Antibody (clone: 30-F11), FITC-Rat Anti-Mouse CD8a Clone 53-6.7 (BD Biosciences), PE labeled H-2L-restricted SPSYVYHQF (SEQ ID NO.: 1), FITC-Anti-CD86 Rat Monoclonal Antibody (clone: GL-1, BioLegend), PE-CD11c Armenian Hamster anti Mouse (Clone: N418, eBioscience), PE-Cy7-Anti-mouse PD-1 (clone: 29F.1A12, BioLegend), FITC-CD44 Rat anti-Human/Mouse (clone: IM7, eBioscience), PE-Cy7-CD62L Monoclonal Antibody (MEL-14) (eBioscience), PE-Tcf1/Tcf7 (C63D9) Rabbit mAb (Cell Signaling Technology, #14456), PE-Cy7-Anti-mouse CD86 (Clone: GL1, BD Bioscience), FITC anti-mouse/human CD11b (M1/70, BioLegend), PE-anti-mouse F4/80 (BM8, BioLegend), or APC anti-mouse CD206 (MMR, BioLegend)). The cells were washed and stained with DAPI, or 7-AAD, or efluor 450 for flow cytometric analysis.

CT26 cells [2] = assay: Therapeutic oral gavage plus α-PD-1 in the CT26 tumor model; assay type: in vivo, BALB/c mice; details: for combination efficacy with α-PD-1 against tumor growth after reducing the dosage by half: 60 mg for inulin, 50 mg/Kg for melatonin
Protocol: (A) 1.5×10^5 CT26 cells were inoculated in BALB/c mice subcutaneously (sc) on day 0. Mice were gavaged from day 7 (5 times per week). On days 11, 15, 19 and 23, α-PD-1 was injected intraperitoneally (ip) at 100 μg per dose. (B) The average tumor growth curves for mice gavaged with various compounds. Data represent mean±SEM. (C) Individual tumor growth curves and (D) survival rate curves of various groups. […] All the data are from 2-3 independent experiments; n=10 (B, C, D), n=7-10 (E, F) *p<0.05, **p<0.01, analysed by two-way ANOVA (B), one-way ANOVA (E, F) or log-rank (Mantel-Cox) test.
(B) The average tumor growth curves and individual tumor growth curve for mice gavaged with inulin or inulin gel (60 mg/dosage). 1.5×10^5 CT26 cells were inoculated in BALB/c mice subcutaneously. Gavage started from day 7 (5 times per week) and 100 μg of α-PD-1 was ip injected on days 11, 15, 19, 23 and 27. (C) The survival rate curves of various groups. […] PBS was used as a control. […] Shown are the average and individual tumor growth curves for tumor-bearing mice. IgG antibody was used as a control group. Data represent mean SEM. All the data are from 2-3 independent experiments; n=10 (B, C), n=5 (D, I), n=10-15 (E), n=4-7 (G, F), *p<0.05, **p<0.01, ***p<0.001, analysed by one-way ANOVA (E, F), two-way ANOVA (B, I), or log-rank (Mantel-Cox) test (C).
Female C57BL/6 or BALB/c mice of 6-8-week old were obtained from Jackson Laboratory. BALB/c mice were inoculated with 1.5×10^5 CT26 cells per mouse, while C57BL/6 mice were inoculated with 1.2×10^6 MC38 cells per mouse on the right flank by subcutaneous injection on day 0. Tumor-bearing mice were randomly assigned to different groups on day 5. For prophylactic antitumor study, mice were received oral gavage with melatonin (100 mg/Kg bodyweight/dosage), EGCG (100 mg/Kg bodyweight/dosage), fucoidan (200 mg/Kg bodyweight/dosage), oligofructose (120 mg/dosage), or inulin (120 mg/dosage) three times for one week prior to tumor inoculation. After tumor inoculation, mice received oral gavage three times in the first week, followed by five times per week. Mice were injected i.p. with α-PD-1 antibody (100 μg/dosage) on days 10, 14, 18 and 22 post tumor inoculation. For the therapeutic therapy, mice were inoculated with tumor cells on day 0 as indicated above and treated with the indicated samples by oral gavage starting day 7 post tumor inoculation.

[3] = test system: AH1-specific CD8+ T cells; assay: Tetramer analysis of AH1-specific CD8+ T cells in PBMCs; assay type: in vivo, BALB/c mice; details: for frequencies of AH1-specific CD8+ T cells among PBMCs, fold greater than α-PD-1 treatment alone: prophylactic oral gavage combined with α-PD-1 IgG, peripheral blood day 22
Excerpt: The effect of these materials were next tested on systemic immune responses. The surrogate marker of tumor specific antigen, MHC-I minimal epitope of CT-26 gp70 (AH1) (H-2L^d-restricted SPSYVYHQF (SEQ ID NO.: 1)), was employed to quantitate the frequency of AH1-specific CD8^+ T cells among peripheral blood mononuclear cells (PBMCs). Mice orally gavaged with inulin and melatonin combined with α-PD-1 IgG induced 1.7-fold and 1.8-fold greater frequencies of AH1-specific CD8^+ T cells, compared with α-PD-1 treatment alone (FIGS. 1E and F).
Peripheral blood mononuclear cells (PBMCs) were collected at preset times to analyze tumor antigen-specific CD8^+ T cells in the systemic circulation. Red blood cells were lysed, and the remaining cells were blocked with anti-CD16/32 antibody for 10 min and stained with peptide-MHC tetramer, including H-2L^d-restricted SPSYVYHQF (SEQ ID NO.: 1) or H-2D^b-restricted ASMTNMELM (SEQ ID NO.: 3). Both the tetramers were provided by NIH Tetramer Core Facility. Cells were also stained anti-CD8-APC (BD Biosciences, #553035) and DAPI for flow cytometric analysis.

CT26 cells [4] = assay: Prophylactic oral gavage plus α-PD-1 in the CT26 tumor model; assay type: in vivo, BALB/c mice
Protocol: FIG. 1A-F: In vivo screening of the candidate materials to prophylactically improve the anti-tumor efficacy of α-PD-1. (A) Mice were prophylactically gavaged various samples on day −7 for three times. Then 1.5×10^5 CT26 cells were inoculated in BALB/c mice subcutaneously (s.c.) on day 0. Mice were gavaged three times again in the first week post tumor inoculation and 5 times per week from day 7. α-PD-1 was i.p. injected on days 10, 14, 18 and 24 at 100 μg/dose. (B) Individual tumor growth curves and (C) average tumor growth curves for mice gavaged with various compounds. (D) Survival rate curves of various groups. (E) The average frequency of AH1-specific CD8^+ T cells in peripheral blood on day 22. (F) The representative scatter plots were measured via flow cytometry. Data represent mean±SEM. *p<0.05, **p<0.01, analyzed by two-way ANOVA (B), or t-test (E), log-rank (Mantel-Cox) test (D).
Among the FDA's list, five candidate materials were selected for the initial screening. Melatonin, found in pineal gland and gastrointestinal tracta, regulates sleep cycle and circadian rhythm. Epigallocatechin gallate (EGCG) is a natural antioxidant in plants. […]
Mice were cared for under the guidelines from federal, state and local. […] Tumor size was measured at preset time, and tumor volume was calculated as length×width^2. […]

[5] = SCFAs measurement in fecal pellets; assay type: in vivo, mice; details: oral gavage of inulin
Protocol: Fresh fecal pellets of mice were collected and weighted on day 20 post tumor inoculation and treatments. Fecal pellets were homogenized in DI water and centrifuged at 3000×g for 5 min. The pH of the supernatant was detected by pH meter. For SCFAs measurement, SCFAs were extracted from the fecal pellets using Milli-Q water. The solution was centrifuged for 5 min at 10000×g (4° C.) to pellet bacteria and other solids. The supernatant was collected, and SCFAs were measured via ion chromatography in University of Michigan Biological Station. The concentration of SCFAs was determined using an external standard method.

gut microbiota = assay: Gut microbiome analysis by 16S rRNA sequencing of fecal pellets; assay type: in vivo, BALB/c mice
Protocol: FIG. 4A-H: Responses of the diversity, richness, and structure of the gut microbiota. 1.5×10^5 CT26 cells were inoculated in BALB/c mice subcutaneously and gavaged from day 7 (5 times per week). α-PD-1 (100 μg per dose) was ip injected on days 11, 15, 19 and 23. The fecal pellets were collected on day 21 for 16s RNA analysis. (A) OTU number, (B) inverse Simposon diversity and (C) nonmetric multidimensional scaling (NMDS) score plot (based on Bray-Curtis) of gut microbiota in various groups. (D) Relative abundances of the gut microbiota at family level and […] genus level. (F) The relative abundances of lactobacillus, akkermansia, roseburia and Ruminococcus_1 in various groups. (G) The relationship of between the tumor sizes and the relative abundances of lactobacillus, akkermansia, roseburia and Ruminococcus_1. (H) The heatmap of SCFAs (lactate, propionate and butyrate) levels of various groups in fecal pellets. Data represent mean±SEM. *p<0.05, **p<0.01, ****p<0.0001, analysed by one-way ANOVA (A, B, F).
Tumor-bearing mice received treatments as indicated above. […] Pooled amplicon library was then sequenced on the Illumina MiSeq platform using the 500 cycle MiSeq V2 Reagent kit (catalog no. MS-102-2003) according to the manufacturer's instructions with modifications of the primer set with custom read 1/read 2 and index primers added to the reagent cartridge. […]

[6] = Potato starch gel formation; assay type: physicochemical; details: in water, gentle stirring at 70° C., when the swelling was completed
Protocol: FIG. 22: Food grade potato starch was pre-hydrated at concentrations of 0.1, 0.5, 2.5, and 5% w/v in water, followed by gentle stirring at 70° C. After cooling, gel formation was examined.
Experiments were next conducted that examined gel formation using potato starch, another prebiotic natural fiber. The impact of potato starch concentration on gel formation was examined. Food grade potato starch (Bob's Red Mill) was pre-hydrated at desired concentrations of 0.1, 0.5, 2.5, and 5% w/v in water, followed by gentle stirring at 70° C. […] Potato starch was instantly gelatinized at concentrations above 5% w/v when the swelling was completed.

gelatin
maximum amount of ingredient that could be added to 23% w/w inulin gel without disrupting gel formation [1]: 5.0 % (w/w)

COc1ccc2[nH]cc(CCNC(C)=O)c2c1 [melatonin, reference compound]
intratumoral infiltration of T cells compared with α-PD-1 IgG alone (CT26 tumor): significantly enhanced | combination efficacy with α-PD-1 against tumor growth after reducing the dosage by half (CT26 cells [2]): did not compromise | frequencies of AH1-specific CD8+ T cells among PBMCs, fold greater than α-PD-1 treatment alone [3]: 1.8 fold

OCC(O)CO [glycerol]
maximum amount of ingredient that could be added to 23% w/w inulin gel without disrupting gel formation [1]: 50 % (w/w)

inulin
anti-tumor efficacy compared with α-PD-1 alone (CT26 cells [4]; prophylactic oral gavage from one week before tumor inoculation, combined with α-PD-1 i.p. 100 μg/dose): best efficacy | mice still surviving on day 50 (CT26 cells [4]; prophylactic oral gavage, inulin 120 mg/dosage, combined with α-PD-1): 60% | intratumoral infiltration of T cells compared with α-PD-1 IgG alone (CT26 tumor): significantly enhanced | concentration of lactate, propionate and butyrate in fecal pellets [5]: increased | combination efficacy with α-PD-1 against tumor growth after reducing the dosage by half (CT26 cells [2]): did not compromise | animal survival (CT26 cells [2]; therapeutic oral gavage from day 7, combined with α-PD-1 IgG): extended animal survival | anti-tumor efficacy (CT26 cells [2]; therapeutic oral gavage from day 7, combined with α-PD-1 IgG, compared among candidate agents): strongest anti-tumor efficacy | frequencies of AH1-specific CD8+ T cells among PBMCs, fold greater than α-PD-1 treatment alone [3]: 1.7 fold | AH1-specific CD8+ T cells among PBMCs ([3]; therapeutic setting, day 18 and 24, combined with α-PD-1): significantly higher | abundance of Roseburia in the gut (gut microbiota; oral gavage with α-PD-1): increased | relative abundance of Akkermansia, Lactobacillus, Ruminococcus, and Butyricicoccus (gut microbiota; oral inulin followed by α-PD-1, compared with α-PD-1 alone or PBS group): increased

pectin
maximum amount of ingredient that could be added to 23% w/w inulin gel without disrupting gel formation [1]: 2 % (w/w)

guar gum
maximum amount of ingredient that could be added to 23% w/w inulin gel without disrupting gel formation [1]: 0.5 % (w/w)

potato starch
concentration at which potato starch was instantly gelatinized [6]: above 5 % w/v | maximum amount of ingredient that could be added to 23% w/w inulin gel without disrupting gel formation [1]: 5 % (w/w)
